From ChEMBL document CHEMBL1132845, “Synthesis and potent anticonvulsant activities of 4-oxo-imidazo[1,2-a]inden” (Bioorg Med Chem Lett, 2000)

Columns and labels:
Mus musculus [1] = species: Mus musculus; experiment: Anticonvulsant activity in male CD1 mice; format: functional
[2] = biological target: T1, Glutamate receptor ionotropic, AMPA (Rattus norvegicus, UniProt P19490+P19491+P19492+P19493)
Description: Antagonistic activity against Ionotropic glutamate receptor AMPA using kainate-evoked current in Xenopus oocytes injected with rat brain mRNA

Mus musculus [3] = species: Mus musculus; experiment: Compound was tested for the maximal electroshock effect in mice; format: functional
Mus musculus [4] = experiment: Effective dose in MES test in mouse after i.v. administration; format: functional; details: iv
Mus musculus [5] = experiment: Effective dose in MES test in mouse after s.c. administration; format: functional; details: sc
Mus musculus [6] = experiment: Effective dose in mouse after i.p. administration; format: functional; details: ip
Mus musculus [7] = experiment: Anticonvulsant activity against glutamic acid receptor complex after subcutaneous administration in CD1 mouse; format: functional; details: sc
Glutamate NMDA receptor = experiment: Binding affinity for N-methyl-D-aspartate glutamate receptor; format: protein-complex assay, Rattus norvegicus
Rattus norvegicus [8] = experiment: Effective dose in MES test in SD rat after s.c. administration; format: functional; details: sc
Rattus norvegicus [9] = experiment: Effective dose in MES test in SD rat after i.v. administration; format: functional; details: iv
[10] = biological target: T1, Glutamate receptor ionotropic, AMPA; experiment: Binding affinity against Ionotropic glutamate receptor AMPA in rat brain
[11] = biological target: T1, Glutamate receptor ionotropic, AMPA; remark: listed apart in the source
Description: Binding affinity for Ionotropic glutamate receptor AMPA

Mus musculus [12] = experiment: Effective dose in MES test in mouse after i.p. administration; details: ip
Rattus norvegicus [13] = experiment: Effective dose in MES test in SD rat after i.p. administration; details: ip
Mus musculus [14] = experiment: Anticonvulsant activity after subcutaneous administration in CD1 mouse
Mus musculus [15] = experiment: Anticonvulsant activity against GABA receptor complex after intra peritoneal administration in CD1 mouse

Row | Compound | ED50 (Mus musculus [1]) | IC50 [2] | IC50 (Glutamate NMDA receptor) | IC50 [11] | also measured
1 | O=c1[nH]c2cc(-n3ccnc3)c([N+](=O)[O-])cc2[nH]c1=O [YM-90K] | 12 mg/kg | 260 nM |  |  | 
2 | O=C(O)Cc1cccc2c1Cc1c-2nc(O)c2nc(C(=O)O)cn12 | 1.2 mg/kg | 5 nM | 7200 nM | 18 nM | ED50 (Mus musculus [3]): ≤ 2 mg/kg; ED50 (Mus musculus [4]): 0.5 mg/kg; ED50 (Mus musculus [5]): 1 mg/kg; ED50 (Mus musculus [6]): 0.8 mg/kg; ED50 (Mus musculus [7]): 1.5 mg/kg; ED50 (Rattus norvegicus [8]): 1 mg/kg; ED50 (Rattus norvegicus [9]): 0.4 mg/kg; IC50 [10]: 4 nM; ED50 (Mus musculus [12]): 1.2 mg/kg; ED50 (Rattus norvegicus [13]): 4.8 mg/kg; ED50 (Mus musculus [14]): ~16 mg/kg; ED50 (Mus musculus [15]): 1.7 mg/kg
3 | O=C(O)Cc1ccc2c(c1)Cc1c-2nc(O)c2nccn12 |  | 2640 nM | > 10000 nM | 10000 nM | 
4 | Oc1nc2c(n3ccnc13)Cc1ccccc1-2 | 62 mg/kg | 1800 nM |  |  | 
5 | CC(C(=O)O)c1cccc2c1Cc1c-2nc(O)c2nc(C(=O)O)cn12 (configuration not stated) | 19 mg/kg | 53 nM | 4100 nM | 450 nM | 
6 | NS(=O)(=O)c1cccc2c1c([N+](=O)[O-])cc1nc(O)c(O)nc12 [NBQX] | 36 mg/kg |  |  |  | 
7 | O=C(O)c1ccc2c(c1)Cc1c-2nc(O)c2nccn12 | > 80 mg/kg | 2010 nM | 10000 nM | 620 nM | 
8 | O=C(O)Cc1cccc2c1Cc1c-2nc(O)c2nccn12 | > 80 mg/kg | 104 nM | > 10000 nM | 89 nM | 
9 | O=C(O)Cc1ccc2c(c1)Cc1c-2nc(O)c2nc(C(=O)O)cn12 | 16 mg/kg | 214 nM | > 10000 nM | 611 nM | 
10 | O=C(O)c1cn2c3c(nc(O)c2n1)-c1ccccc1C3 | 50 mg/kg | 29 nM | 83 nM |  | 
11 | O=C(O)c1cccc2c1Cc1c-2nc(O)c2nccn12 |  | 3250 nM | 21000 nM | 3500 nM | 
12 | O=C(O)Cc1cn2c3c(nc(O)c2n1)-c1cccc(CC(=O)O)c1C3 | 2 mg/kg | 23 nM | 2100 nM | 4 nM | 
13 | O=C(O)[C@@H]1C[C@H]2C[C@@H](CCc3nn[nH]n3)CC[C@H]2CN1 [TEZAMPANEL ANHYDROUS] | 4 mg/kg | 230 nM |  |  | 
